In US10081624B2, “Heterocyclic compound” (Takeda Pharmaceutical Company Limited, priority 2014, dated 2018):

Target: T1, HDAC6 enzyme (Homo sapiens, UniProt Q9UBN7)
T1 construct: prepared by transducing full length HDAC1 and HDAC6 genes into Sf-9 insect cells; GST; purchased SignalChem; host or cells: Sf-9 insect cells
T1 sequence (Q9UBN7 1-1215): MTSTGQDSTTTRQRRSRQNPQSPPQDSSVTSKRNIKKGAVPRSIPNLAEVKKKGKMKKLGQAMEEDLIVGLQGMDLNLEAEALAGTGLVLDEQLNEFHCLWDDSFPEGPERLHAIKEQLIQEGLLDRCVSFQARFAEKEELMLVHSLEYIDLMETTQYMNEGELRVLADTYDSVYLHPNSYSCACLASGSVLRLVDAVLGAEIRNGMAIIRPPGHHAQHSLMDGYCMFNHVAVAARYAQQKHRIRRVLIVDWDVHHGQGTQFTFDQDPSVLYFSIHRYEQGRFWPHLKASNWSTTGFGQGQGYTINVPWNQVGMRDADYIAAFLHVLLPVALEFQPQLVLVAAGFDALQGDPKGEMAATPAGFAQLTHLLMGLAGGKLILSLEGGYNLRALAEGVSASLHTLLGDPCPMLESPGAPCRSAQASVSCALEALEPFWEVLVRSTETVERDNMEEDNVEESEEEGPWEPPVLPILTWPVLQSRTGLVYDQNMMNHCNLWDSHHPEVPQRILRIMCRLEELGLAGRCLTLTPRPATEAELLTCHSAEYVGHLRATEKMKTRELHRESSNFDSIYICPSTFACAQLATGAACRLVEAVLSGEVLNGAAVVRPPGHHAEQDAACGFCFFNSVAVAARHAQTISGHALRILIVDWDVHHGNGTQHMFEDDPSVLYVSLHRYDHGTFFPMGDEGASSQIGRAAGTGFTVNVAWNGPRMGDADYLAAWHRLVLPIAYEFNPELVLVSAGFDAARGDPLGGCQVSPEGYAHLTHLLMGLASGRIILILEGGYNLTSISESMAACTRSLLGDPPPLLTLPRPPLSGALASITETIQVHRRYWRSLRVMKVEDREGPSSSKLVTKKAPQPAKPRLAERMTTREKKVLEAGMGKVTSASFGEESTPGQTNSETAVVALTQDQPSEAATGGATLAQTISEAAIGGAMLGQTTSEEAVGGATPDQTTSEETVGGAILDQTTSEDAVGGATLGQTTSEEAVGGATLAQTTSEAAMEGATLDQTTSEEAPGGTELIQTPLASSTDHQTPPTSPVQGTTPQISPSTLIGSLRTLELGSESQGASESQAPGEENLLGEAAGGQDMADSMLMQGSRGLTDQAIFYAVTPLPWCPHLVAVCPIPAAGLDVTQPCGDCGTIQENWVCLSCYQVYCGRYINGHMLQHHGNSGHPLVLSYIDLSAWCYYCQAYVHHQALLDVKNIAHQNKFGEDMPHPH
Assay: HDAC6 enzyme inhibitory assay (HDAC-Glo I/II Assay kit)
Type: biochemical
Conditions: 1 μM test compound; read-out: HDAC6 inhibitory rate (%) (1 μM)
Method in brief: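 Sf-9-expressed GST-purified full-length HDAC1/HDAC6; cpd + enzyme 60 min RT, 24 mM Tris-HCl pH 7.5, 135 mM NaCl, 0.6 mM glutathione, 0.01% Tween-20; substrate-developer 20 min RT; luminescence; no-enzyme wells = 100% inhibition.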

Structure (SMILES)	inhibition at 1 µM
Cc1cc(C(=O)N2CCOCC2CNC(=O)c2ccc(-c3noc(C(F)(F)F)n3)s2)n(C)n1 (stereo not shown) [Example 230, N-((4-((1,3-dimethyl-1H-pyrazol-5-yl)carbonyl)morpholin-3-yl)methyl)-5-(5-(trifluoromethyl)-1,2,4-oxadiazol-3-yl)thiophene-2-carboxamide]	88%
Cc1cc(C(=O)N2CCOCC2CNC(=O)c2ccc(-c3noc(C(F)(F)F)n3)s2)on1 (stereo not shown) [Example 240, N-((4-((3-methyl-1,2-oxazol-5-yl)carbonyl)morpholin-3-yl)methyl)-5-(5-(trifluoromethyl)-1,2,4-oxadiazol-3-yl)thiophene-2-carboxamide]	89%
Cn1cnc(C(=O)N2CCOCC2CNC(=O)c2ccc(-c3noc(C(F)(F)F)n3)s2)c1 (stereo not shown) [Example 234, N-((4-((1-methyl-1H-imidazol-4-yl)carbonyl)morpholin-3-yl)methyl)-5-(5-(trifluoromethyl)-1,2,4-oxadiazol-3-yl)thiophene-2-carboxamide]	38%
Cc1cc(C(=O)N2CCOC[C@H]2CNC(=O)c2ccc(-c3noc(C(F)(F)F)n3)cc2)n(C)n1 [Example 135, N-(((3R)-4-((1,3-dimethyl-1H-pyrazol-5-yl)carbonyl)morpholin-3-yl)methyl)-4-(5-(trifluoromethyl)-1,2,4-oxadiazol-3-yl)benzamide]	91%
O=C(NCC1COCCN1C(=O)Cc1cccs1)c1ccc(-c2noc(C(F)(F)F)n2)s1 (stereo not shown) [Example 245, N-((4-(2-thienylacetyl)morpholin-3-yl)methyl)-5-(5-(trifluoromethyl)-1,2,4-oxadiazol-3-yl)thiophene-2-carboxamide]	95%
O=C(NC[C@H]1COCCN1C(=O)c1cc2ncccn2n1)c1ccc(-c2noc(C(F)(F)F)n2)cc1 [Example 54, N-(((3S)-4-(pyrazolo[1,5-a]pyrimidin-2-ylcarbonyl)morpholin-3-yl)methyl)-4-(5-(trifluoromethyl)-1,2,4-oxadiazol-3-yl)benzamide]	95%
O=C(NCC1COCCN1C(=O)C1(c2ccccc2)CCCCC1)c1ccc(-c2noc(C(F)(F)F)n2)s1 (stereo not shown) [Example 249, N-((4-((1-phenylcyclohexyl)carbonyl)morpholin-3-yl)methyl)-5-(5-(trifluoromethyl)-1,2,4-oxadiazol-3-yl)thiophene-2-carboxamide]	83%
O=C(NC[C@H]1COCCN1C(=O)c1cc2ccccc2o1)c1ccc(-c2noc(C(F)(F)F)n2)cc1 [Example 53, N-(((3S)-4-(1-benzofuran-2-ylcarbonyl)morpholin-3-yl)methyl)-4-(5-(trifluoromethyl)-1,2,4-oxadiazol-3-yl)benzamide]	95%
O=C(NC[C@@H]1COCCN1C(=O)c1cc[nH]n1)c1ccc(-c2noc(C(F)(F)F)n2)cc1 [Example 143, N-(((3R)-4-(1H-pyrazol-3-ylcarbonyl)morpholin-3-yl)methyl)-4-(5-(trifluoromethyl)-1,2,4-oxadiazol-3-yl)benzamide]	93%
O=C(NC[C@H]1COCCN1C(=O)C1CCCO1)c1ccc(-c2noc(C(F)(F)F)n2)cc1 (stereo partly drawn) [Example 78, N-(((3S)-4-(tetrahydrofuran-2-ylcarbonyl)morpholin-3-yl)methyl)-4-(5-(trifluoromethyl)-1,2,4-oxadiazol-3-yl)benzamide]	88%
Cc1cc(C(=O)N2CCOC[C@H]2CNC(=O)c2ccc(-c3noc(C(F)(F)F)n3)cc2)cc(O)n1 [Example 122, N-(((3R)-4-(2-hydroxy-6-methylisonicotinoyl)morpholin-3-yl)methyl)-4-(5-(trifluoromethyl)-1,2,4-oxadiazol-3-yl)benzamide]	36%
O=C(NCC1COCCN1C(=O)C1CCOCC1)c1ccc(-c2noc(C(F)(F)F)n2)s1 (stereo not shown) [Example 255, N-((4-(tetrahydro-2H-pyran-4-ylcarbonyl)morpholin-3-yl)methyl)-5-(5-(trifluoromethyl)-1,2,4-oxadiazol-3-yl)thiophene-2-carboxamide]	93%
O=C(NCC1COCCN1C(=O)c1ccncc1)c1ccc(-c2noc(C(F)(F)F)n2)s1 (stereo not shown) [Example 226, N-((4-isonicotinoylmorpholin-3-yl)methyl)-5-(5-(trifluoromethyl)-1,2,4-oxadiazol-3-yl)thiophene-2-carboxamide]	95%
Cn1nccc1C(=O)N1CCOC[C@@H]1CNC(=O)c1ccc(-c2noc(C(F)(F)F)n2)cn1 [Example 192, N-(((3S)-4-((1-methyl-1H-pyrazol-5-yl)carbonyl)morpholin-3-yl)methyl)-5-(5-(trifluoromethyl)-1,2,4-oxadiazol-3-yl)pyridine-2-carboxamide]	94%
O=C(NCC1COCCN1C(=O)Nc1ccccc1)c1ccc(-c2noc(C(F)(F)F)n2)cc1 (stereo not shown) [Example 2, N-phenyl-3-(((4-(5-(trifluoromethyl)-1,2,4-oxadiazol-3-yl)benzoyl)amino)methyl)morpholine-4-carboxamide]	86%
Cc1ccsc1C(=O)N1CCOC[C@H]1CNC(=O)c1ccc(-c2noc(C(F)(F)F)n2)cc1 [Example 146, N-(((3R)-4-((3-methyl-2-thienyl)carbonyl)morpholin-3-yl)methyl)-4-(5-(trifluoromethyl)-1,2,4-oxadiazol-3-yl)benzamide]	94%
O=C(NCC1COCCN1C(=O)c1ccccc1N1CCOCC1)c1ccc(-c2noc(C(F)(F)F)n2)s1 (stereo not shown) [Example 220, N-((4-(2-(morpholin-4-yl)benzoyl)morpholin-3-yl)methyl)-5-(5-(trifluoromethyl)-1,2,4-oxadiazol-3-yl)thiophene-2-carboxamide]	94%
O=C(NC[C@H]1COCCN1C(=O)C1CC1)c1ccc(-c2noc(C(F)(F)F)n2)cc1 [Example 75, N-(((3S)-4-(cyclopropylcarbonyl)morpholin-3-yl)methyl)-4-(5-(trifluoromethyl)-1,2,4-oxadiazol-3-yl)benzamide]	92%
O=C(NCC1c2ccccc2CN1C(=O)C1CC1)c1ccc(-c2noc(C(F)(F)F)n2)cc1 (stereo not shown) [Example 169, N-((2-(cyclopropylcarbonyl)-2,3-dihydro-1H-isoindol-1-yl)methyl)-4-(5-(trifluoromethyl)-1,2,4-oxadiazol-3-yl)benzamide]	84%
Cn1cc(C(=O)N2CCOCC2CNC(=O)c2ccc(-c3noc(C(F)(F)F)n3)s2)cn1 (stereo not shown) [Example 233, N-((4-((1-methyl-1H-pyrazol-4-yl)carbonyl)morpholin-3-yl)methyl)-5-(5-(trifluoromethyl)-1,2,4-oxadiazol-3-yl)thiophene-2-carboxamide]	78%
N#Cc1ccccc1C(=O)N1CCOCC1CNC(=O)c1ccc(-c2noc(C(F)(F)F)n2)cc1 (stereo in doubt) [Example 115, N-(((3R)-4-(2-cyanobenzoyl)morpholin-3-yl)methyl)-4-(5-(trifluoromethyl)-1,2,4-oxadiazol-3-yl)benzamide]	94%
O=C(NCC1COCCN1C(=O)c1ccccc1)c1ccc(-c2noc(C(F)(F)F)n2)nc1 (stereo not shown) [Example 180, N-((4-benzoylmorpholin-3-yl)methyl)-6-(5-(trifluoromethyl)-1,2,4-oxadiazol-3-yl)nicotinamide]	91%
Cc1cc(C(=O)N2CCOC[C@@H]2CNC(=O)c2ccc(-c3noc(C(F)(F)F)n3)cc2)cc(O)n1 [Example 50, N-(((3S)-4-(2-hydroxy-6-methylisonicotinoyl)morpholin-3-yl)methyl)-4-(5-(trifluoromethyl)-1,2,4-oxadiazol-3-yl)benzamide]	95%
N#Cc1cc(F)cc(C(=O)N2CCOC[C@H]2CNC(=O)c2ccc(-c3noc(C(F)(F)F)n3)cc2)c1 [Example 156, N-(((3R)-4-(3-cyano-5-fluorobenzoyl)morpholin-3-yl)methyl)-4-(5-(trifluoromethyl)-1,2,4-oxadiazol-3-yl)benzamide]	95%
O=C(NC[C@H]1COCCN1C(=O)c1cccs1)c1ccc(-c2noc(C(F)(F)F)n2)cn1 [Example 197, N-(((3S)-4-(2-thienylcarbonyl)morpholin-3-yl)methyl)-5-(5-(trifluoromethyl)-1,2,4-oxadiazol-3-yl)pyridine-2-carboxamide]	97%
